Patent publication US20100068204A1, “4-ARYLOXYQUINOLIN-2(1H)-ONES AS MTOR KINASE AND PI3 KINASE INHIBITORS, FOR USE AS ANTI-CANCER AGENTS” (Wyeth, priority 2008, published 2010)
Like-named read-outs stand apart in the source and are kept apart here. Values belong to the compound of their own block, whether it stands above or below them.

Experiments:
[1] = single- and repeat-dosing; cited from earlier work
[2] = test system: human tumor xenograft models; conditions: cited from earlier work
[3] = test system: acute lymphoblastic leukemia xenograft; conditions: in vivo; cited from earlier work
[4] = biological target: mTOR (Homo sapiens, UniProt P42345); conditions: read-out: mTOR IC50; literature; mTOR complexes / mTOR enzymes; cited from earlier work

melting point: 187 to 193 °C (dec.)
SMILES: CN(Cc1cccnc1)c1cccc(Oc2cc(=O)[nH]c3ccccc23)c1 [Example 161, 4-{3-[methyl(pyridin-3-ylmethyl)amino]phenoxy}quinolin-2(1H)-one]

SMILES: O=C1NC(=O)/C(=C/c2ccc3nccc(-c4ccncc4)c3c2)S1 [GSK-1059615]
exposure in phase 1 clinical study [1]: lack of sufficient exposure

SMILES: Cn1c(=O)n(-c2ccc(C(C)(C)C#N)cc2)c2c3cc(-c4cnc5ccccc5c4)ccc3ncc21 [NVP-BEZ-235, 2-methyl-2-(4-(3-methyl-2-oxo-8-(quinolin-3-yl)-2,3-dihydro-1H-imidazo[4,5-c]quinolin-1-yl)phenyl)propanenitrile]
activity in human tumor xenograft models ([2]; prostrate (PC-3) and glioblastoma (U-87)): demonstrated activity

SMILES: Oc1cccc(-c2nc(N3CCOCC3)c3oc4ncccc4c3n2)c1 [PI103, 3-(4-(4-morpholinyl)pyrido[3′,2′:4,5]furo[3,2-d]pyrimidin-2-yl)phenol]
activity in human tumor xenograft models ([2]; I.P. dosing in mice, U87MG, PC3, MDA-MB-468, MDA-MB-435, HCT 116, SKOV3, IGROV-1): demonstrated activity

SMILES: CO[C@H]1C[C@@H]2CC[C@@H](C)[C@@](O)(O2)C(=O)C(=O)N2CCCC[C@H]2C(=O)O[C@H]([C@H](C)C[C@@H]2CC[C@@H](OC(=O)C(C)(CO)CO)[C@H](OC)C2)CC(=O)[C@H](C)/C=C(\C)[C@@H](O)[C@@H](OC)C(=O)[C@H](C)C[C@H](C)/C=C/C=C/C=C/1C [Torisel]
activity in NOS/SCID xenograft mouse model of acute lymphoblastic leukemia [3]: active

SMILES: FC(F)c1nc2ccccc2n1-c1nc(N2CCOCC2)nc(N2CCOCC2)n1 [ZSTK474, 2-(2-difluoromethylbenzoimidazol-1-yl)-4,6-dimorpholino-1,3,5-triazine]
IC50 [4]: > 10 µM | tumor growth in mouse human xenograft cancer models ([2]; chronic oral administration, 400 mg/kg, A549, PC-3, WiDr): completely inhibited growth
